This note sets out measurements from ChEMBL document CHEMBL1126330, “Synthesis of RP-67,580, a new potent nonpeptide substance P antagonist” (Bioorg Med Chem Lett, 1992).

Molecules are shown by their SMILES.

In assay [1] the target is Substance-P receptor (Rattus norvegicus, UniProt P14600). Description: Tested for binding affinity towards Tachykinin receptor 1 by using [3H]SP binding assay in rat brain membranes. The class given is cell membranes.
Assay [2] addresses Substance-P receptor (Cavia porcellus, UniProt P30547). The experiment in a line: Tested for inhibition of contractile effects of Tachykinin receptor 1 in guinea pig ileum preparation. Type of assay: functional, tissue-based. The following applies: read-out: pA2 (converted).

Sequence of Substance-P receptor (Rattus norvegicus, UniProt P14600) (P14600 whole entry): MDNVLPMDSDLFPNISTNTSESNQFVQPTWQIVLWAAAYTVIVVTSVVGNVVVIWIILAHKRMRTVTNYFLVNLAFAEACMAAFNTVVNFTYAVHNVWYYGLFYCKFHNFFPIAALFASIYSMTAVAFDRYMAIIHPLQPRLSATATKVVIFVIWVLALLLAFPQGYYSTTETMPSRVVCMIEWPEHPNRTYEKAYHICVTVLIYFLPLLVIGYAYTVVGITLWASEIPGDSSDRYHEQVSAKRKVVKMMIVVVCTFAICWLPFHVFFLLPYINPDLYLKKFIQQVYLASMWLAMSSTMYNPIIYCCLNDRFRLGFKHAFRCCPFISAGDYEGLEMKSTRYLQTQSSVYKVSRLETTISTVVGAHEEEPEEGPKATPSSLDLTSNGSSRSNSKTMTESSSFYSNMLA
Sequence of Substance-P receptor (Cavia porcellus, UniProt P30547) (P30547 whole entry): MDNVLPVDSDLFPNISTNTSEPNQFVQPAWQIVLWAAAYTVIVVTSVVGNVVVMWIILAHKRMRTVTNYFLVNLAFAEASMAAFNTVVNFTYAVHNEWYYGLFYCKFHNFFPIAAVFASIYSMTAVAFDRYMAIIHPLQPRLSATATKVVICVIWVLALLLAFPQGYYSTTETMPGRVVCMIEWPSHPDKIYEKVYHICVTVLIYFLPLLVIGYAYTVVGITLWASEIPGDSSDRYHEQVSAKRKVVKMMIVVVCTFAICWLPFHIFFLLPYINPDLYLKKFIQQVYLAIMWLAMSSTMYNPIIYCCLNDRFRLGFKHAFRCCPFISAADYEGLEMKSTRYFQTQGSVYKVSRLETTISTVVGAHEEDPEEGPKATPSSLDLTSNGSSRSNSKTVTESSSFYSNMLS

`COc1ccccc1CC(=N)N1C[C@@H]2C(=O)CCC(c3ccccc3)(c3ccccc3)[C@@H]2C1`: at Substance-P receptor [1], the Ki (commonly the equilibrium dissociation constant of an inhibitor or competing ligand from its target) was found to be 4.16 nM. In addition, the Kb on Substance-P receptor [2] was 63.1 nM.
